Activity calls are given as the source filed them. No cut-off for these calls is given here.
What was measured:
[1] = biological target: Mitogen-activated protein kinase 10 (Homo sapiens, UniProt P53779); assay: Inhibition of JNK3 (unknown origin) using biotinylated ATF2 by HTRF method
[2] = biological target: Mitogen-activated protein kinase 9 (Homo sapiens, UniProt P45984); assay: Inhibition of JNK2 (unknown origin) using biotinylated ATF2 by HTRF method
[3] = Half life in Sprague-Dawley rat at 1 mg/kg, iv and 2 mg/kg, po by LC-MS/MS analysis; type: ADME, organism-based; details: in vivo
[4] = tested on: Rattus norvegicus; assay: (§1) AUC in Sprague-Dawley rat at 2 mg/kg, po by LC-MS/MS analysis; type: ADME, organism-based, Plasma; design: dose 2 mg/kg, route oral; details: in vivo
[5] = tested on: Rattus norvegicus; assay: (§2) Oral bioavailability in Sprague-Dawley rat at 2 mg/kg by LC-MS/MS analysis; type: ADME, organism-based; details: in vivo
[6] = Plasma concentration in C57Bl6 mouse at 10 mg/kg after 2 hrs by LC-MS/MS analysis; type: ADME, organism-based; design: dose 10 mg/kg
[7] = Drug uptake in C57Bl6 mouse brain at 10 mg/kg after 2 hrs by LC-MS/MS analysis; type: ADME, organism-based; design: dose 10 mg/kg; details: read-out: Drug uptake
[8] = tested on: Brain; assay: Drug penetration in C57Bl6 mouse brain at 10 mg/kg by LC-MS/MS analysis relative to control; type: ADME, organism-based; design: dose 10 mg/kg; details: in vivo
[9] = biological target: T1, c-Jun N-terminal kinase, JNK (Homo sapiens, UniProt P45983+P53779+P45984); assay: Inhibition of JNK in human U87MG cells overexpressing EGFR V3 mutant assessed as inhibition of c-jun phosphorylation after 6 hrs by ELISA; type: cell-based; details: u-87mg atcc
[10] = biological target: T1, c-Jun N-terminal kinase, JNK; details: U-87MG ATCC
Description: Inhibition of JNK in human U87MG cells overexpressing EGFR V3 mutant assessed as inhibition of c-jun phosphorylation at 0.1 to 3 uM after 6 hrs by Western blotting analysis

[11] = Inhibition of JNK in rat INS cells assessed as inhibition of c-jun phosphorylation; type: cell-based
[12] = Clearance in Sprague-Dawley rat at 1 mg/kg, iv and 2 mg/kg, po by LC-MS/MS analysis; type: ADME, organism-based; details: in vivo
[13] = as §1; type: ADME, organism-based, Plasma; design: dose 2 mg/kg, route oral; details: Sprague-Dawley, plasma
[14] = as §2; type: ADME, organism-based; details: Sprague-Dawley, in vivo

Chain of Mitogen-activated protein kinase 10 (P53779 whole entry): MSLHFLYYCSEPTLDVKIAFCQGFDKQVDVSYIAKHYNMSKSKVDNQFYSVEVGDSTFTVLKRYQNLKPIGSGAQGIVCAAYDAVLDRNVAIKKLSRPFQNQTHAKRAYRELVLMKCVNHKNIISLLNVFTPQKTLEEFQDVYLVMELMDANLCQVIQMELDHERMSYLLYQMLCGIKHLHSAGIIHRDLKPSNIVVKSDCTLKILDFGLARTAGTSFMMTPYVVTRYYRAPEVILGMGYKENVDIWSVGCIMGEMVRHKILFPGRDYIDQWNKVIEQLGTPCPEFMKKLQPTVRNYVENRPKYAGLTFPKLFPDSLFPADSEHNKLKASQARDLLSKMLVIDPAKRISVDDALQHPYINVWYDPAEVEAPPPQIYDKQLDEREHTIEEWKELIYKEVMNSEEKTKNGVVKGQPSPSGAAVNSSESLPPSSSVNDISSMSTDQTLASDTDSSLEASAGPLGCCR
Chain of Mitogen-activated protein kinase 9 (P45984 whole entry): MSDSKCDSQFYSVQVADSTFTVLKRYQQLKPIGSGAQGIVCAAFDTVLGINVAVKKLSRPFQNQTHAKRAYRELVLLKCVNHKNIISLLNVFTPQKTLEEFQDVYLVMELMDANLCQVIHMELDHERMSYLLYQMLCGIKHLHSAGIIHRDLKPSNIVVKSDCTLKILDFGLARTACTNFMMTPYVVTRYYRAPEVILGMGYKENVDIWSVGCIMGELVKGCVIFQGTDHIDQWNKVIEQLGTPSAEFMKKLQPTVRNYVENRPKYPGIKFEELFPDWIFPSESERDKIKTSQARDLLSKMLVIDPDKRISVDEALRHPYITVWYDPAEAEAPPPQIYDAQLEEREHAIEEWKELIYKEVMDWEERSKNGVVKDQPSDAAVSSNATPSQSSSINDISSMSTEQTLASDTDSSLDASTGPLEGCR

Structure (SMILES) | IC50 [1] [µM] | IC50 [2] [µM] | also measured
COc1cc(N2CCOCC2)ccc1Nc1cc(Nc2ccccc2C(=O)N(C)C)c(C(F)(F)F)cn1 | 1 |  | 
CNC(=O)c1ccccc1Nc1cc(Nc2ccc(N3CCOCC3)cc2OC)ncc1F | 0.32 | 0.59 | 
O=C(Nc1ccccc1)c1ccccc1Nc1ccnc(Nc2ccc(N3CCOCC3)cc2)c1 | 12 |  | 
O=C1NCc2cccc(Nc3ccnc(Nc4ccc(N5CCOCC5)cc4)c3)c21 | 1.8 |  | 
O=C(NCc1ccccc1)c1ccccc1Nc1ccnc(Nc2ccc(N3CCOCC3)cc2)c1 | > 20 |  | 
CNC(=O)c1ccccc1Nc1ccnc(Nc2ccc(N3CCOCC3)cc2)c1 | 3.1 |  | 
CNC(=O)c1ccccc1Nc1nc(Nc2ccc(N3CCOCC3)cc2OC)ncc1Cl |  |  | IC50 [11]: 0.485 µM; inhibition [10]: Active
NC(=O)c1ccccc1Nc1ccnc(Nc2ccc(N3CCOCC3)cc2)c1 | 0.16 | 0.329 | 
CNC(=O)c1ccccc1Nc1cc(Nc2ccc(N3CCOCC3)cc2OC)ncc1C(F)(F)F [VS-4718] | 0.16 | 0.12 | IC50 [11]: > 3 µM
CNC(=O)c1ccccc1Nc1cc(Nc2ccc(N3CCOCC3)cc2OC)ncc1C#N | 0.51 | > 3 | 
COc1cc(N2CCOCC2)ccc1Nc1cc(Nc2ccccc2C(N)=O)ccn1 | 0.374 |  | 
CN(C)CCNC(=O)c1ccccc1Nc1ccnc(Nc2ccc(N3CCOCC3)cc2)c1 | > 20 |  | 

Further lines, with some results ahead:

IC50 [1] [µM] | IC50 [2] [µM] | Structure (SMILES) | also measured
0.00028 | 0.00068 | COc1cc(Nc2ncc(Cl)c(Nc3ccccc3C(N)=O)n2)ccc1N1CCOCC1 | half-life [3]: 1 h; AUC [4]: 1.3 µM·h; F [5]: 17%; concentration at 2 h [6]: 2600 nM; concentration at 2 h [7]: 800 nM; Drug uptake [8]: 31%; EC50 [9]: 0.023 µM; inhibition [10]: Active
0.068 | 0.082 | CNC(=O)c1ccccc1Nc1cc(Nc2ccc(N3CCOCC3)cc2OC)ncc1Br | 
0.00078 | 0.003 | COc1cc(N2CCOCC2)ccc1Nc1ncc(Cl)c(Nc2ccccc2C(N)=O)n1 | IC50 [11]: 0.003 µM; half-life [3]: 1 h; AUC [4]: 0.4 µM·h; F [5]: 30%; concentration at 2 h [6]: 5500 nM; concentration at 2 h [7]: 930 nM; Drug uptake [8]: 17%
0.083 | 0.05 | CNC(=O)c1ccccc1Nc1cc(Nc2ccc(N3CCOCC3)cc2OC)ncc1Cl | 
0.0025 | 0.034 | NC(=O)c1ccccc1Nc1nc(Nc2ccc(Cl)cc2)ncc1Cl | 
0.00042 | 0.001 | COc1ccc(Nc2ncc(Cl)c(Nc3ccccc3C(N)=O)n2)cc1 | 
0.00077 | 0.00071 | N#Cc1ccc(Nc2ncc(Cl)c(Nc3ccccc3C(N)=O)n2)cc1 | 
0.0003 | 0.0006 | NC(=O)c1ccccc1Nc1nc(Nc2ccc(N3CCOCC3)cc2F)ncc1Cl | 
0.0012 | 0.0025 | NC(=O)c1ccccc1Nc1nc(Nc2ccc(F)cc2)ncc1Cl | 
0.00031 | 0.00069 | Cc1cc(Nc2ncc(Cl)c(Nc3ccccc3C(N)=O)n2)ccc1N1CCOCC1 | 
0.00025 | 0.00051 | NC(=O)c1ccccc1Nc1nc(Nc2ccc(N3CCOCC3)c(F)c2)ncc1Cl | 
0.061 | 0.09 | CNC(=O)c1ccccc1Nc1cc(Nc2ccc(N3CCOCC3)cc2)ncc1C(F)(F)F | 
0.00028 | 0.001 | NC(=O)c1ccccc1Nc1nc(Nc2ccc(N3CCOCC3)cc2)ncc1Cl | half-life [3]: 1 h; clearance [12]: 59 mL/min/kg; AUC [13]: 0.1 µM·h; bioavailability [14]: 8%; concentration at 2 h [6]: 840 nM; concentration at 2 h [7]: 830 nM; Drug uptake [8]: 100%
0.00016 | 0.00024 | NC(=O)c1ccccc1Nc1nc(Nc2ccc(N3CCCC3=O)cc2)ncc1Cl | half-life [3]: 0.6 h; clearance [12]: 10 mL/min/kg; AUC [13]: 0.2 µM·h; bioavailability [14]: 3%; concentration at 2 h [6]: 680 nM; concentration at 2 h [7]: 15 nM; Drug uptake [8]: 2%
0.132 |  | COc1cc(Nc2cc(Nc3ccccc3C(N)=O)ccn2)ccc1N1CCOCC1 | 
